Like-named read-outs stand apart in the source and are kept apart here.
T1: UGT1A10 (Homo sapiens, UniProt Q9HAW8)
T1 sequence (Q9HAW8 26-530): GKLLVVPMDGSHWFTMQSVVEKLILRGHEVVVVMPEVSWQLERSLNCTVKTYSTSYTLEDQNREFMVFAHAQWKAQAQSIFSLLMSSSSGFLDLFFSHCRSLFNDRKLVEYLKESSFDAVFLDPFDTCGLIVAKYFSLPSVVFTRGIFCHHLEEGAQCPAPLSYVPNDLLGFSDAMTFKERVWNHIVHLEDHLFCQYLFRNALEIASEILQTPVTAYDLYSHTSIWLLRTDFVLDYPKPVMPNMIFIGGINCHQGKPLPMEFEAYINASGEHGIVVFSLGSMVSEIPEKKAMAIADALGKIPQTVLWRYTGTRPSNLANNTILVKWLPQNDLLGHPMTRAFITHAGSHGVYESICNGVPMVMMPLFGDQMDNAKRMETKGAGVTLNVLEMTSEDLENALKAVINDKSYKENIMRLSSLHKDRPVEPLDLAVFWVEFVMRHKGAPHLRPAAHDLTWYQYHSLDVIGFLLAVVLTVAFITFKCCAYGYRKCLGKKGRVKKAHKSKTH

T2: UGT1A1 (Homo sapiens, UniProt P22309)
T2 sequence (P22309 26-533): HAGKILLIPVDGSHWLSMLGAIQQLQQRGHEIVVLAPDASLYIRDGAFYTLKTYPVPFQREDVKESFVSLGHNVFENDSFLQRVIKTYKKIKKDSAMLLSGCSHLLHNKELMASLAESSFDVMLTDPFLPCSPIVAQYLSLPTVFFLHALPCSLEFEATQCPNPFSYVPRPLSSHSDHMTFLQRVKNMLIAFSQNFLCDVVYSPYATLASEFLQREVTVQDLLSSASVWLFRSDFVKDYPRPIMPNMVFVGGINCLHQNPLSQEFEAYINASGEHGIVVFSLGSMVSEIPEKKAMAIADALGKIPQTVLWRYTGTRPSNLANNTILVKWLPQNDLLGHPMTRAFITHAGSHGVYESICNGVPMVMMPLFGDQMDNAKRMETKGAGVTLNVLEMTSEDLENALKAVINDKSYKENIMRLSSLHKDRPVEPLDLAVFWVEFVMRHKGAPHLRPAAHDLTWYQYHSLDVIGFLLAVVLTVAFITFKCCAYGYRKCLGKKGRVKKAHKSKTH

T3: UGT2B7 (Homo sapiens, UniProt P16662)
T3 sequence (P16662 24-529): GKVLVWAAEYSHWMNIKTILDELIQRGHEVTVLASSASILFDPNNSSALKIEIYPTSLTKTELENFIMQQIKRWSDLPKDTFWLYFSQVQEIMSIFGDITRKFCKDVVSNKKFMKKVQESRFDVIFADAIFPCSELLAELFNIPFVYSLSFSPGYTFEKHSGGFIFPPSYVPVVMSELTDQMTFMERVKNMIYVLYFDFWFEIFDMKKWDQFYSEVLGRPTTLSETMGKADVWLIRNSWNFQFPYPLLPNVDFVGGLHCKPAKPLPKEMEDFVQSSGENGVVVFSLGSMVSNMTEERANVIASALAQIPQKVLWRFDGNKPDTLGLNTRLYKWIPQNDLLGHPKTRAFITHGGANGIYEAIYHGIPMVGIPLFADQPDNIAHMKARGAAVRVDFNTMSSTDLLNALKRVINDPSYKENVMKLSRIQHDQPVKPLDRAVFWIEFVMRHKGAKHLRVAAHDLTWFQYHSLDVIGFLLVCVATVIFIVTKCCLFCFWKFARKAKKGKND

B1: UGT2B7 (Homo sapiens) (protein)
chain: T3 sequence (P16662 24-529)

Columns and labels:
UGT1A10 = target: T1, UGT1A10; assay: Inhibition of UGT1A10 (4-methylumbelliferone-O-glucuronidation); details: for Inhibitory type: best model by smallest AIC and SC; for activity at 10 µM: human, expressed human UGT1A10 enzyme, probe 4-methylumbelliferone (4-MU)
Procedure: (§1) The final volume of solvent in incubations was 1%. In addition, emodin, atazanavir, and diclofenac were considered as positive controls for UGT1A10, UGT1A1, and UGT2B7, respectively.
(§2) Competitive inhibition, non-competitive inhibition, and mixed-type inhibition models were used to estimate the Ki values by nonlinear regression based on Eqs 6–8, respectively.

UGT1A1 [1] = target: T2, UGT1A1; assay: Inhibition of UGT1A1 (β-estradiol-3-O-glucuronidation); details: for Inhibitory type: best model by smallest AIC and SC; for activity at 10 µM: human
Procedure: as §1, §2

UGT2B7 = target: T3, UGT2B7; assay: Inhibition of UGT2B7 (zidovudine-N-glucuronidation); details: for Inhibitory type: best model by smallest AIC and SC; for α: mixed-type inhibition model, αKi; for activity at 10 µM: human, probe zidovudine (AZT)
Procedure: as §1, §2

UGT1A1 [2] = system: UGT1A1; parameters: method as in Wang et al., 2015a; details: ref Wang et al., 2015a; cited from earlier work
[3] = substrate: C[C@]12CC[C@@H]3c4ccc(O)cc4CC[C@H]3[C@@H]1C[C@@H](O)[C@@H]2O; assay: cells, lysate or membranes named; details: other: UGT2B7; 16-O-glucuronide formation; pH 7.4; 37.0 °C
Procedure: In brief, incubation mixtures (100 μL) contained Tris-HCl buffer solution (50 mM, pH = 7.4), microsomes (HLM, HIM, 0.5 mg/ml) or UGT enzymes (1 mg/ml), MgCl2 (0.88 mM), alamethicin (22 μg/ml), and D-saccharic-1,4-lactone (4.4 mM) and respective substrate. The volume of organic solvent in incubation mixtures was kept below 1%. After pre-incubation at 37°C for 5 min, the reaction was commenced with the addition of UDPGA (4 mM) and subsequently incubated at 37°C for a period. The reaction was terminated by adding 100 μL of cold acetonitrile. Then, the incubation mixtures were vortexed and centrifuged at 13,800 g for 10 min to collect the supernatant for analysis.
All experiments were performed in triplicate.
Glucuronidation rates were expressed as the amounts of formed metabolites per minute per milligram protein (pmol/min/mg protein) based on Eq. 1. Furthermore, kinetic characteristics were evaluated from the suitable curves based on the profile of the Eadie–Hofstee plot, and corresponding kinetic parameters were estimated using Eqs 2–4. Appropriated model fitting was performed by GraphPad Prism V5 software (San Diego, CA).
The intrinsic clearance (CL int ) was derived from V max /K m for Michaelis–Menten and substrate inhibition models, and the maximal clearance (CL max ) was obtained using Eq. 5 for Hill kinetics.

[4] = human UGT1A1 enzyme, probe β-estradiol (E2)
[5] = UGT2B7 enzyme (optimized UGT2B7 incubation system)

Row | Molecule | IC50 (UGT1A10) [nM] | Ki (UGT1A10) [nM] | Inhibitory type (UGT1A10; UGT1A10) | activity at 10 µM (UGT1A10) [%] | IC50 (UGT1A1 [1]) [nM] | Ki (UGT1A1 [1]) [nM] | Inhibitory type (UGT1A1 [1]; UGT1A1) | activity at 10 µM (UGT1A1 [1]; [4]) [%] | Inhibitory type (UGT2B7; UGT2B7) | IC50 (UGT2B7) [nM] | activity at 10 µM (UGT2B7; [5]) [%] | also measured
1 | COc1ccc(-c2oc3c(CC=C(C)C)c(O[C@@H]4O[C@H](CO)[C@@H](O)[C@H](O)[C@H]4O)cc(O)c3c(=O)c2O)cc1 [Icariside I, icariside I] | 1390 ± 330 | 1920 ± 260 | Competitive | 26.5 | 3280 ± 1200 | 6010 ± 470 | Non-competitive | 35.5 |  |  |  | 
2 | Cc1cc(O)c2c(c1)C(=O)c1cc(O)cc(O)c1C2=O [emodin, reference compound] |  |  |  | 52.4 |  |  |  |  |  |  |  | 
3 | icariside II |  |  | Competitive |  |  |  | Competitive |  | Competitive |  |  | 
4 | CC(C)=CCc1cc2c(cc1O)oc(=O)c1c3ccc(O)cc3oc21 [Psoralidin, psoralidin] |  |  |  |  | 1950 ± 150 | 980 ± 230 | Non-competitive | 1.48 |  |  |  | 
5 | CC(C)=CCC/C(C)=C/Cc1cc(-c2coc3cc(O)ccc3c2=O)ccc1O [Corylifol A, corylifol A] | 2910 ± 340 | 780 ± 60 | Non-competitive | 13.9 | 440 ± 50 | 440 ± 70 | Competitive | 0.72 | Mixed type | 880 ± 80 | 0 | Ki (UGT2B7): 360 ± 70 nM; α (UGT2B7; UGT2B7): 5.17 ± 3.55; Ki (UGT1A1 [2]): < 1000 nM
6 | C=C[C@@](C)(/C=C/c1ccc(O)cc1)CCC=C(C)C [Bakuchiol, bakuchiol] |  |  |  |  |  |  |  |  | Competitive | 4550 ± 430 | 35.5 | 
7 | CC(C)=CCc1cc2c(cc1O)O[C@H](c1ccc(O)cc1)CC2=O [Bavachin, bavachin] | 5630 ± 460 | 2810 ± 210 | Competitive | 35.6 | 610 ± 20 | 400 ± 50 | Non-competitive | 2.43 | Mixed type | 4970 ± 550 | 32.5 | Ki (UGT2B7): 640 ± 160 nM; α (UGT2B7; UGT2B7): 69.70 ± 6.67; Ki (UGT1A1 [2]): < 1000 nM
8 | CC(C)=CCc1cc(-c2coc3cc(O)ccc3c2=O)ccc1O [Neobavaisoflavone, neobavaisoflavone] | 3990 ± 670 | 2600 ± 230 | Competitive | 31.1 | 2860 ± 140 | 780 ± 160 | Non-competitive | 7.42 | Mixed type | 1170 ± 100 | 10.2 | Ki (UGT2B7): 390 ± 30 nM; α (UGT2B7; UGT2B7): 5.15 ± 2.08
9 | COc1ccc(-c2oc3c(CC=C(C)C)c(O[C@@H]4O[C@H](CO)[C@@H](O)[C@H](O)[C@H]4O)cc(O)c3c(=O)c2O[C@@H]2O[C@@H](C)[C@H](O)[C@@H](O)[C@H]2O)cc1 [Icariin, icariin] | 5940 ± 1240 | 9770 ± 820 |  | 37.3 |  |  |  |  |  |  |  | 
10 | bavachinin |  |  | Competitive |  |  |  |  |  | Competitive |  |  | residual activity of UGT1A10 (UGT1A10; 10 μM, % of negative control): 37.70%; IC50 (UGT1A10; UGT1A10, substrate 4-MU): 5420 ± 640 nM; Ki (UGT1A10; UGT1A10, substrate 4-MU): 3290 ± 230 nM; residual activity (Figures 3G–I, UGT2B7) (UGT2B7; 10 μM, % of negative control): 13.23%; IC50 (UGT2B7; UGT2B7, substrate AZT): 2270 ± 260 nM; Ki (UGT2B7; UGT2B7, substrate AZT): 1110 ± 170 nM
11 | CC(C)=CCc1c(O)ccc2c1O[C@H](c1ccc(O)cc1)CC2=O [Isobavachin, isobavachin] | 3620 ± 360 | 1810 ± 280 | Non-competitive | 20.4 | 1730 ± 110 |  | Competitive | 4.58 | Competitive | 110 ± 10 | 0 | Ki (UGT2B7; UGT2B7, substrate AZT): 20 ± 10 nM; Ki (UGT1A1 [1]; UGT1A1, substrate E2): 3350 ± 530 nM
12 | CC(C)=CCc1c(O)ccc(C(=O)/C=C/c2ccc(O)cc2)c1O [Isobavachalcone, isobavachalcone] | 2800 ± 300 | 1660 ± 190 | Non-competitive | 8.61 | 1650 ± 150 | 1200 ± 120 | Non-competitive | 3.97 | Competitive | 1380 ± 220 | 0 | Ki (UGT2B7): 300 ± 70 nM
13 | O=C(O)Cc1ccccc1Nc1c(Cl)cccc1Cl [diclofenac, reference compound] |  |  |  |  |  |  |  |  |  |  |  | activity at 10 µM (UGT2B7; expressed human UGT2B7 enzyme): 53.9%
14 | CC(C)=CCc1cc(C(=O)/C=C/c2ccc(O)cc2)c(O)cc1O [Bavachalcone, bavachalcone] |  |  |  |  | 530 ± 70 | 1100 ± 80 | Non-competitive | 13 | Competitive | 4650 ± 520 | 27.2 | Ki (UGT2B7): 1870 ± 200 nM
15 | COc1ccc(-c2oc3c(CC=C(C)C)c(O)cc(O)c3c(=O)c2O)cc1 [Icaritin, icaritin] |  |  |  |  | 1280 ± 260 | 420 ± 170 | Non-competitive | 10.2 |  |  |  | 
16 | O=C(C=Cc1ccc(O)c2c1C(C(=O)OC(Cc1ccc(O)c(O)c1)C(=O)O)C(c1ccc(O)c(O)c1)O2)OC(Cc1ccc(O)c(O)c1)C(=O)O (centres unmarked) [Salvianolic acid B, salvianolic acid B] |  |  |  |  | 3780 ± 530 | 2160 ± 210 | Competitive |  |  |  |  | activity at 10 µM (UGT1A1 [1]): 36.2%
17 | COC(=O)N[C@H](C(=O)N[C@@H](Cc1ccccc1)[C@@H](O)CN(Cc1ccc(-c2ccccn2)cc1)NC(=O)[C@@H](NC(=O)OC)C(C)(C)C)C(C)(C)C [atazanavir, reference compound] |  |  |  |  |  |  |  |  |  |  |  | activity at 10 µM (UGT1A1 [1]; expressed human UGT1A1 enzyme, probe β-estradiol (E2)): 4.38%
18 | B1 |  |  |  |  |  |  |  |  |  |  |  | K0.5 [3]: 9.92 ± 0.69 µM; Vmax [3]: 0.00788 µmol/min/mg; Vmax/Km [3]: 794 µL/min/mg
